The results in this text go back to patent US20240158446A1, “CYCLIC COMPOUND HAVING SELECTIVE INHIBITORY ACTION ON KRAS OVER HRAS AND NRAS” (CHUGAI SEIYAKU KABUSHIKI KAISHA, priority 2021, published 2024).

Assay [1] concerns the target GDP-bound HRAS wild-type protein (Homo sapiens, UniProt P01112). Briefly: Binding to HRAS by surface plasmon resonance (SPR), Single Cycle Kinetics. The settings on record: SPR; GDP-bound HRAS wild-type protein vs GDP-bound KRAS wild-type protein; KD ratio class. Background: SPR reads the build-up and loss of mass on a sensor chip optically.
The target of assay [2] is GDP-bound NRAS wild-type protein (Homo sapiens, UniProt P01111). As to the kind of experiment: Binding to NRAS by surface plasmon resonance (SPR), Single Cycle Kinetics. The note with it: SPR; GDP-bound NRAS wild-type protein vs GDP-bound KRAS wild-type protein; KD ratio class.
Assay [3] concerns the target GDP-bound KRAS wild-type protein (Homo sapiens, UniProt P01116). Briefly: Binding to KRAS by surface plasmon resonance (SPR), Single Cycle Kinetics. The note with it: SPR, Single Cycle Kinetics, 1:1 binding model; GDP-bound KRAS wild-type protein; read-out: KRAS KD.

Sequence of GDP-bound HRAS wild-type protein (P01112 whole entry): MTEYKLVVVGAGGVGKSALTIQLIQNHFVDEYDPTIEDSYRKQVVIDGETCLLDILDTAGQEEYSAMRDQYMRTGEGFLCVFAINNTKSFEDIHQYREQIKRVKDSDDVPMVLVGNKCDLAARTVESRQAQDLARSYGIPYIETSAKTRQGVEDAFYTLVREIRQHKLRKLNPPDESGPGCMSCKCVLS
Sequence of GDP-bound KRAS wild-type protein (P01116 whole entry): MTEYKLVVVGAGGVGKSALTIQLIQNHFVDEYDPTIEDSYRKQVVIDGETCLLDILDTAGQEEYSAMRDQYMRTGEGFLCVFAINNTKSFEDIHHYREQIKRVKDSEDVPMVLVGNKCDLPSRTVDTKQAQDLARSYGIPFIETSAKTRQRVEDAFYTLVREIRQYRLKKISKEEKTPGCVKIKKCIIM
Sequence of GDP-bound NRAS wild-type protein (P01111 whole entry): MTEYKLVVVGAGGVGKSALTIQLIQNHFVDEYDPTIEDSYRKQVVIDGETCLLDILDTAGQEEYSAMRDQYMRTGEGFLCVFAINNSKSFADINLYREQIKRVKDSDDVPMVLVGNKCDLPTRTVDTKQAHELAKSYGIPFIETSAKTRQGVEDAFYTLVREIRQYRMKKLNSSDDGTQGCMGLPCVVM

As to `CCO[C@@H]1C[C@H]2C(=O)NC3(CCC3)C(=O)N(C)[C@@H](C(CC)CC)C(=O)N(C)[C@H](C(=O)N(C)C)CC(=O)N(C)[C@@H](CC(C)C)C(=O)N[C@@H]([C@@H](C)CC)C(=O)N(C)CC(=O)N(C)[C@H]3C/C=C\CCN(C3=O)[C@@H](Cc3ccc(F)cc3C)C(=O)N(C)CC(=O)N[C@@H](CCc3cc(F)c(C(F)(F)F)c(F)c3)C(=O)N2C1` [PP1518], the “HRAS/KRAS (ratio of KD value for HRAS to KD value for KRAS)” value in assay [1] was “B (a compound having 3 or more and less than 10 is denoted as B)”. For the same compound, the “NRAS/KRAS (ratio of KD value for NRAS to KD value for KRAS)” value in assay [2] is “A (a compound having 10 or more and less than 20 is denoted as A)”. For the same compound, the dissociation constant (Kd) in assay [3] was determined as 0.58 nM.

Take `CCO[C@@H]1C[C@H]2C(=O)NC3(CCC3)C(=O)N(C)[C@@H](C(CC)CC)C(=O)N(C)[C@H](C(=O)N(C)C)CC(=O)N(C)[C@@H](CC(C)C)C(=O)N[C@@H]([C@@H](C)CC)C(=O)N(C)CC(=O)N(C)[C@H]3C/C=C\CCN(C3=O)[C@@H](Cc3ccc(F)cc3)C(=O)N(C)CC(=O)N[C@@H](CCc3cc(F)c(C(F)(F)F)c(F)c3)C(=O)N2C1` [PP1519]: the “HRAS/KRAS (ratio of KD value for HRAS to KD value for KRAS)” value in assay [1] was “A (a compound having 10 or more and less than 20 is denoted as A)”. Besides, the “NRAS/KRAS (ratio of KD value for NRAS to KD value for KRAS)” value in assay [2] is “A (a compound having 10 or more and less than 20 is denoted as A)”. In assay [3], the Kd was 0.41 nM.

Regarding `CCO[C@@H]1C[C@H]2C(=O)NC3(CCC3)C(=O)N(C)[C@@H](C(CC)CC)C(=O)N(C)[C@H](C)CC(=O)N(C)[C@@H](CC3CC3)C(=O)N[C@@H]([C@@H](C)CC)C(=O)N(C)CC(=O)N(C)[C@H]3C/C=C\CCN(C3=O)[C@@H](Cc3ccc(F)cc3)C(=O)N(C)CC(=O)N[C@@H](CCc3cc(F)c(C(F)(F)F)c(F)c3)C(=O)N2C1` [PP1521], the “HRAS/KRAS (ratio of KD value for HRAS to KD value for KRAS)” value in assay [1] is “B (a compound having 3 or more and less than 10 is denoted as B)”. For the same compound, the “NRAS/KRAS (ratio of KD value for NRAS to KD value for KRAS)” value in assay [2] was “A (a compound having 10 or more and less than 20 is denoted as A)”. Moreover, the Kd in assay [3] worked out at 2.6 nM.

With `CCO[C@@H]1C[C@H]2C(=O)NC3(CCC3)C(=O)N(C)[C@@H](C(CC)CC)C(=O)N(C)[C@H](C)CC(=O)N(C)[C@@H](CC3CCCC3)C(=O)N[C@@H]([C@@H](C)CC)C(=O)N(C)CC(=O)N(C)[C@H]3C/C=C\CCN(C3=O)[C@@H](Cc3ccc(F)cc3C)C(=O)N(C)CC(=O)N[C@@H](CCc3cc(F)c(C(F)(F)F)c(F)c3)C(=O)N2C1` [PP1522], the “HRAS/KRAS (ratio of KD value for HRAS to KD value for KRAS)” value in assay [1] is “A (a compound having 10 or more and less than 20 is denoted as A)”. The “NRAS/KRAS (ratio of KD value for NRAS to KD value for KRAS)” value in assay [2] was “A (a compound having 10 or more and less than 20 is denoted as A)”. In addition, the Kd in assay [3] is 8.8 nM.

As to `CCO[C@@H]1C[C@H]2C(=O)NC3(CCC3)C(=O)N(C)[C@@H](C(CC)CC)C(=O)N(C)[C@H](C(=O)N3CCOCC3)CC(=O)N(C)[C@@H](CC3CC3)C(=O)N[C@@H]([C@@H](C)CC)C(=O)N(C)CC(=O)N(C)[C@H]3C/C=C\CCN(C3=O)[C@@H](Cc3ccc(F)cc3C)C(=O)N(C)CC(=O)N[C@@H](CCc3cc(F)c(C(F)(F)F)c(F)c3)C(=O)N2C1` [PP1526], the “HRAS/KRAS (ratio of KD value for HRAS to KD value for KRAS)” value in assay [1] is “A (a compound having 10 or more and less than 20 is denoted as A)”. In addition, the “NRAS/KRAS (ratio of KD value for NRAS to KD value for KRAS)” value in assay [2] was “A (a compound having 10 or more and less than 20 is denoted as A)”. Moreover, the Kd in assay [3] turned out to be 1.3 nM.

Consider `CCO[C@@H]1C[C@H]2C(=O)NC3(CCC3)C(=O)N(C)[C@@H](C3CCCC3)C(=O)N(C)[C@H](C(=O)N(C)C)CC(=O)N(C)[C@@H](CC3CCCC3)C(=O)N[C@@H]([C@@H](C)CC)C(=O)N(C)CC(=O)N(C)[C@H]3C/C=C\CCN(C3=O)[C@@H](Cc3ccc(F)cc3)C(=O)N(C)CC(=O)N[C@@H](CCc3cc(F)c(C(F)(F)F)c(F)c3)C(=O)N2C1` [PP1531, (2S,8S,12R,14S,20S,23S,27S,30S,36S,38Z)-20-cyclopentyl-27-(cyclopentylmethyl)-8-[2-[3,5-difluoro-4-(trifluoromethyl)phenyl]ethyl]-12-ethoxy-2-[(4-fluorophenyl)methyl]-N,N,4,19,22,26,32,35-octamethyl-30-[(1S)-1-methylpropyl]-3,6,9,15,18,21,25,28,31,34,42-undecaoxo-spiro[1,4,7,10,16,19,22,26,29,32,35-undecazatricyclo[34.5.1.0^10,14]dotetracont-38-ene-17,1′-cyclobutane]-23-carboxamide], for which the “HRAS/KRAS (ratio of KD value for HRAS to KD value for KRAS)” value in assay [1] was “B (a compound having 3 or more and less than 10 is denoted as B)”. Further, in assay [2], the “NRAS/KRAS (ratio of KD value for NRAS to KD value for KRAS)” value was “A (a compound having 10 or more and less than 20 is denoted as A)”. Further, the Kd in assay [3] was 0.12 nM.

With `CCO[C@@H]1C[C@H]2C(=O)NC3(CCC3)C(=O)N(C)[C@@H](C3CCCC3)C(=O)N(C)[C@H](C(=O)N(C)C)CC(=O)N(C)[C@@H](CC(C)C)C(=O)N[C@@H]([C@@H](C)CC)C(=O)N(C)CC(=O)N(C)[C@H]3C/C=C\CCN(C3=O)[C@@H](Cc3ccc(F)cc3C)C(=O)N(C)CC(=O)N[C@@H](CCc3cc(F)c(C(F)(F)F)c(F)c3)C(=O)N2C1` [PP1532], in assay [1], the “HRAS/KRAS (ratio of KD value for HRAS to KD value for KRAS)” value is “B (a compound having 3 or more and less than 10 is denoted as B)”. Also, the “NRAS/KRAS (ratio of KD value for NRAS to KD value for KRAS)” value in assay [2] was “A (a compound having 10 or more and less than 20 is denoted as A)”. For the same compound, the Kd in assay [3] was found to be 0.19 nM.

For the compound `CC[C@H](C)[C@@H]1NC(=O)[C@H](CC2CC2)N(C)C(=O)C[C@@H](C(=O)N(C)C)N(C)C(=O)[C@H](C2CCCC2)N(C)C(=O)C2(CCC2)NC(=O)[C@@H]2[C@@H](OCC(F)F)CCN2C(=O)[C@H](CCc2cc(F)c(C(F)(F)F)c(F)c2)NC(=O)CN(C)C(=O)[C@H](Cc2ccc(C(F)(F)F)cc2)N2CC/C=C\C[C@@H](C2=O)N(C)C(=O)CN(C)C1=O` [PP1533], the “HRAS/KRAS (ratio of KD value for HRAS to KD value for KRAS)” value in assay [1] was “A (a compound having 10 or more and less than 20 is denoted as A)”. Also, the “NRAS/KRAS (ratio of KD value for NRAS to KD value for KRAS)” value in assay [2] is recorded as “AA (a compound having 20 or more is denoted as AA)”. Besides, the Kd in assay [3] was 0.13 nM.

Turning to `CC[C@H](C)[C@@H]1NC(=O)[C@H](CC(C)C)N(C)C(=O)C[C@@H](C(=O)N(C)C)N(C)C(=O)[C@H](C2CCCC2)N(C)C(=O)C2(CCC2)NC(=O)[C@@H]2[C@@H](OCC(F)F)CCN2C(=O)[C@H](CCc2cc(F)c(C(F)(F)F)c(F)c2)NC(=O)CN(C)C(=O)[C@H](Cc2ccc(C(F)(F)F)cc2)N2CC/C=C\C[C@@H](C2=O)N(C)C(=O)CN(C)C1=O` [PP1534, (2S,8S,13S,14S,20S,23S,27S,30S,36S,38Z)-20-cyclopentyl-13-(2,2-difluoroethoxy)-8-[2-[3,5-difluoro-4-(trifluoromethyl)phenyl]ethyl]-27-isobutyl-N,N,4,19,22,26,32,35-octamethyl-30-[(1S)-1-methylpropyl]-3,6,9,15,18,21,25,28,31,34,42-undecaoxo-2-[[4-(trifluoromethyl)phenyl]methyl]spiro[1,4,7,10,16,19,22,26,29,32,35-undecazatricyclo[34.5.1.0^10,14]dotetracont-38-ene-17,1′-cyclobutane]-23-carboxamide], the “HRAS/KRAS (ratio of KD value for HRAS to KD value for KRAS)” value in assay [1] was “A (a compound having 10 or more and less than 20 is denoted as A)”. In assay [2], the “NRAS/KRAS (ratio of KD value for NRAS to KD value for KRAS)” value is recorded as “AA (a compound having 20 or more is denoted as AA)”. In addition, the Kd in assay [3] turned out to be 0.13 nM.

`CC[C@H](C)[C@@H]1NC(=O)[C@H](CC2CCCC2)N(C)C(=O)C[C@@H](C(=O)N(C)C)N(C)C(=O)[C@@H](C2CCCC2)N(C)C(=O)C2(CCC2)NC(=O)[C@@H]2[C@@H](OCC(F)F)CCN2C(=O)[C@@H](CCc2cc(F)c(C(F)(F)F)c(F)c2)NC(=O)CN(C)C(=O)[C@@H](Cc2ccc(C)cc2)N2CC/C=C\C[C@H](C2=O)N(C)C(=O)CN(C)C1=O` [PP1536]: the “HRAS/KRAS (ratio of KD value for HRAS to KD value for KRAS)” value in assay [1] is “B (a compound having 3 or more and less than 10 is denoted as B)”. For the same compound, the “NRAS/KRAS (ratio of KD value for NRAS to KD value for KRAS)” value in assay [2] is “A (a compound having 10 or more and less than 20 is denoted as A)”. Moreover, in assay [3], the Kd came to 0.2 nM.

In the case of `CC[C@H](C)[C@@H]1NC(=O)[C@H](CC2CC2)N(C)C(=O)C[C@@H](C(=O)N(C)CC)N(C)C(=O)[C@H](C2CCCC2)N(C)C(=O)C2(CCC2)NC(=O)[C@@H]2C[C@H](C)CN2C(=O)[C@H](CCc2cc(F)c(C(F)(F)F)c(F)c2)NC(=O)CN(C)C(=O)[C@H](Cc2ccc(C(F)(F)F)cc2)N2CC/C=C\C[C@@H](C2=O)N(C)C(=O)CN(C)C1=O` [PP1537, (2S,8S,12S,14S,20S,23S,27S,30S,36S,38Z)-20-cyclopentyl-27-(cyclopropylmethyl)-8-[2-[3,5-difluoro-4-(trifluoromethyl)phenyl]ethyl]-N-ethyl-N,4,12,19,22,26,32,35-octamethyl-30-[(1S)-1-methylpropyl]-3,6,9,15,18,21,25,28,31,34,42-undecaoxo-2-[[4-(trifluoromethyl)phenyl]methyl]spiro[1,4,7,10,16,19,22,26,29,32,35-undecazatricyclo[34.5.1.0^10,14]dotetracont-38-ene-17,1′-cyclobutane]-23-carboxamide], the “HRAS/KRAS (ratio of KD value for HRAS to KD value for KRAS)” value in assay [1] was “A (a compound having 10 or more and less than 20 is denoted as A)”. The “NRAS/KRAS (ratio of KD value for NRAS to KD value for KRAS)” value in assay [2] is on record as “AA (a compound having 20 or more is denoted as AA)”. Further, the dissociation constant (Kd) in assay [3] worked out at 0.067 nM.

As to `CC[C@H](C)[C@@H]1NC(=O)[C@H](CC2CC2)N(C)C(=O)C[C@@H](C(=O)N(C)CC)N(C)C(=O)[C@H](C2CCCC2)N(C)C(=O)C2(CCC2)NC(=O)[C@@H]2CC(F)(F)CN2C(=O)[C@H](CCc2cc(F)c(C(F)(F)F)c(F)c2)NC(=O)CN(C)C(=O)[C@H](Cc2ccc(C(F)(F)F)cc2)N2CC/C=C\C[C@@H](C2=O)N(C)C(=O)CN(C)C1=O` [PP1538], in assay [1], the “HRAS/KRAS (ratio of KD value for HRAS to KD value for KRAS)” value is “B (a compound having 3 or more and less than 10 is denoted as B)”. In addition, in assay [2], the “NRAS/KRAS (ratio of KD value for NRAS to KD value for KRAS)” value is “A (a compound having 10 or more and less than 20 is denoted as A)”. Besides, in assay [3], the Kd was determined as 0.086 nM.

A word on the Kd: it is the constant that tells how readily two partners part at equilibrium.
